Consider 54 compounds from US12643905B2, “Spiropyrrolidine derived antiviral agents” (priority 2021, dated 2026).

In this test the target is SARS-CoV-2 3CL-protease (Severe acute respiratory syndrome coronavirus 2, UniProt P0DTD1). Kind of test: SARS-CoV-2 3C-like (3CL) protease fluorescence assay (FRET). In kind it is biochemical. Conditions: recombinant SARS-CoV-2 3CL-protease 10 nM, 30 min preincubation, run in duplicate; read-out: FRET IC50.

For `[2H]C([2H])([2H])N(C(=O)C(=O)Nc1ccc(C(F)(F)F)cc1)[C@@H](CC1CC1)C(=O)N1C[C@]2(C[C@H]1C#N)C(=O)Nc1ccccc12` [Example 54], the IC50 was under 100 nM.

Take `[2H]C([2H])([2H])N(C(=O)C(=O)Nc1ccc(F)cc1C(F)(F)F)[C@@H](CC1CC1)C(=O)N1C[C@]2(C[C@H]1C#N)C(=O)Nc1ccccc12` [Example 55]: the IC50 is under 100 nM.

In the case of `[2H]C([2H])([2H])N(C(=O)C(=O)NCC(C)C)[C@@H](CCCC)C(=O)N1C[C@]2(C[C@H]1C#N)C(=O)Nc1ccccc12` [Example 56], the IC50 is under 100 nM.

Consider `[2H]C([2H])([2H])N(C(=O)C(=O)c1ccc(F)cc1)[C@@H](CCCC)C(=O)N1C[C@]2(C[C@H]1C#N)C(=O)Nc1ccccc12` [Example 57], for which the concentration for half-maximal inhibition (IC50) is under 100 nM.

As for `CC(C)(C)C[C@@H](C(=O)N1C[C@]2(C[C@H]1C#N)C(=O)Nc1ccccc12)N(CC(F)F)C(=O)C(=O)Nc1ccccc1` [Example 60], the IC50 was in the range of 100 to 1000 nM.

As to `CC(C)(C)C[C@@H](C(=O)N1C[C@]2(C[C@H]1C#N)C(=O)Nc1ccccc12)N(CC(F)F)C(=O)C(=O)Nc1ccccn1` [Example 61], the IC50 is over 1000 nM.

Regarding `CC(C)(C)C[C@@H](C(=O)N1C[C@]2(C[C@H]1C#N)C(=O)Nc1ccccc12)N(CC(F)F)C(=O)C(=O)Nc1ccc(F)cc1` [Example 62], the IC50 was in the range of 100 to 1000 nM.

Regarding `CC(C)(C)C[C@@H](C(=O)N1C[C@]2(C[C@H]1C#N)C(=O)Nc1ccccc12)N(CC(F)F)C(=O)C(=O)NC1CC1` [Example 63], the concentration for half-maximal inhibition (IC50) was 100 to 1000 nM.

Consider `CC(C)(C)C[C@@H](C(=O)N1C[C@]2(C[C@H]1C#N)C(=O)Nc1ccccc12)N(CC(F)(F)F)C(=O)C(=O)Nc1ccc(F)cc1` [Example 64], for which the IC50 lay within 100 to 1000 nM.

Take `CC(C)(C)C[C@@H](C(=O)N1C[C@]2(C[C@H]1C#N)C(=O)Nc1ccccc12)N(CC(F)(F)F)C(=O)C(=O)Nc1ccccc1` [Example 65]: the IC50 is 100 to 1000 nM.

With `CC(C)(C)C[C@@H](C(=O)N1C[C@]2(C[C@H]1C#N)C(=O)Nc1ccccc12)N(CC(F)(F)F)C(=O)C(=O)Nc1ccccn1` [Example 66], the IC50 was over 1000 nM.

With `CC(C)(C)C[C@@H](C(=O)N1C[C@]2(C[C@H]1C#N)C(=O)Nc1ccccc12)N(CC(F)(F)F)C(=O)C(=O)NC1CC1` [Example 67], the IC50 lay within 100 to 1000 nM.

Take `Cc1cccc(C)c1NC(=O)C(=O)N[C@@H](Cc1ccc(F)cc1)C(=O)N1C[C@]2(C[C@H]1C#N)C(=O)Nc1ccccc12` [Example 73]: the IC50 is under 100 nM.

Consider `Cc1cccc(C)c1NC(=O)C(=O)N[C@@H](CC1CC1)C(=O)N1C[C@]2(C[C@H]1C#N)C(=O)Nc1ccccc12` [Example 78], for which the IC50 was under 100 nM.

As to `CCCC[C@H](NC(=O)C(=O)Nc1c(F)cccc1C(F)(F)F)C(=O)N1C[C@]2(C[C@H]1C#N)C(=O)Nc1ccccc12` [Example 79], the IC50 was under 100 nM.

In the case of `CC(C)(C)C[C@H](NC(=O)C(=O)Nc1cc(F)cc(F)c1)C(=O)N1C[C@]2(C[C@H]1C#N)C(=O)Nc1ccccc12` [Example 86], the IC50 is under 100 nM.

`CC(C)(C)C[C@H](NC(=O)C(=O)NC(C)(C)c1ccccn1)C(=O)N1C[C@]2(C[C@H]1C#N)C(=O)Nc1ccccc12` [Example 106]: the half-inhibitory concentration (IC50) was under 100 nM.

As to `CC(C)(C)C[C@H](NC(=O)C(=O)NC1(c2ccccc2C(F)(F)F)CC1)C(=O)N1C[C@]2(C[C@H]1C#N)C(=O)Nc1ccccc12` [Example 107], the 50% inhibitory concentration (IC50) was under 100 nM.

Consider `CC(C)(C)C[C@H](NC(=O)C(=O)NC1(c2ccc(C(F)(F)F)cc2)CC1)C(=O)N1C[C@]2(C[C@H]1C#N)C(=O)Nc1ccccc12` [Example 108], for which the IC50 is under 100 nM.

For `CN(C(=O)C(=O)N[C@@H](CC(C)(C)C)C(=O)N1C[C@]2(C[C@H]1C#N)C(=O)Nc1ccccc12)C1CC1` [Example 109], the IC50 is over 1000 nM.

As to `CC(C)(C)C[C@H](NC(=O)C(=O)N1CCCCC1)C(=O)N1C[C@]2(C[C@H]1C#N)C(=O)Nc1ccccc12` [Example 110], the IC50 was over 1000 nM.

Turning to `CC(C)(C)C[C@H](NC(=O)C(=O)N1CCC(F)(F)CC1)C(=O)N1C[C@]2(C[C@H]1C#N)C(=O)Nc1ccccc12` [Example 111], the IC50 is over 1000 nM.

On to `CC(C)(C)C[C@H](NC(=O)C(=O)N1CCC(C(F)(F)F)CC1)C(=O)N1C[C@]2(C[C@H]1C#N)C(=O)Nc1ccccc12` [Example 112], for which the IC50 lay within 100 to 1000 nM.

Turning to `CC(C)(C)C[C@H](NC(=O)C(=O)Nc1ccc2cccnc2c1)C(=O)N1C[C@]2(C[C@H]1C#N)C(=O)Nc1ccccc12` [Example 113], the IC50 was under 100 nM.

Take `CC(C)(C)C[C@H](NC(=O)C(=O)Nc1ccc2ncccc2c1)C(=O)N1C[C@]2(C[C@H]1C#N)C(=O)Nc1ccccc12` [Example 114]: the IC50 is under 100 nM.

As to `CC(C)(C)C[C@H](NC(=O)C(=O)Nc1ncccc1F)C(=O)N1C[C@]2(C[C@H]1C#N)C(=O)Nc1ccccc12` [Example 121], the IC50 was under 100 nM.

For `CC(C)(C)C[C@H](NC(=O)C(=O)Nc1c(F)cncc1F)C(=O)N1C[C@]2(C[C@H]1C#N)C(=O)Nc1ccccc12` [Example 122], the IC50 is under 100 nM.

`CC(C)(C)C[C@H](NC(=O)C(=O)Nc1ccc2[nH]ccc2c1)C(=O)N1C[C@]2(C[C@H]1C#N)C(=O)Nc1ccccc12` [Example 123]: the 50% inhibitory concentration (IC50) was under 100 nM.

Turning to `CC(C)(C)C[C@H](NC(=O)C(=O)Nc1ccc2cc[nH]c2c1)C(=O)N1C[C@]2(C[C@H]1C#N)C(=O)Nc1ccccc12` [Example 124], the IC50 is under 100 nM.

Turning to `CC(C)(C)C[C@H](NC(=O)C(=O)Nc1ncccc1C(F)(F)F)C(=O)N1C[C@]2(C[C@H]1C#N)C(=O)Nc1ccccc12` [Example 125], the IC50 was under 100 nM.

`Cc1cccnc1NC(=O)C(=O)N[C@@H](CC(C)(C)C)C(=O)N1C[C@]2(C[C@H]1C#N)C(=O)Nc1ccccc12` [Example 126]: the IC50 is under 100 nM.

With `Cc1ccc(NC(=O)C(=O)N[C@@H](CC(C)(C)C)C(=O)N2C[C@]3(C[C@H]2C#N)C(=O)Nc2ccccc23)nc1` [Example 127], the IC50 is under 100 nM.

As for `CC(C)(C)C[C@H](NC(=O)C(=O)Nc1ccnc(C(F)(F)F)c1)C(=O)N1C[C@]2(C[C@H]1C#N)C(=O)Nc1ccccc12` [Example 128], the half-inhibitory concentration (IC50) is under 100 nM.

On to `CC(C)(C)C[C@H](NC(=O)C(=O)N[C@]12C[C@](C(F)(F)F)(C1)C2)C(=O)N1C[C@]2(C[C@H]1C#N)C(=O)Nc1ccccc12` [Example 129], for which the half-maximal inhibitory concentration (IC50) was under 100 nM.

With `CC(C)(C)C[C@H](NC(=O)C(=O)NC12CCC(CC1)CC2)C(=O)N1C[C@]2(C[C@H]1C#N)C(=O)Nc1ccccc12` [Example 130], the IC50 was under 100 nM.

Turning to `CC(C)(C)C[C@H](NC(=O)C(=O)NC1CCC(F)(F)CC1)C(=O)N1C[C@]2(C[C@H]1C#N)C(=O)Nc1ccccc12` [Example 131], the IC50 is under 100 nM.

On to `Cc1cccc(C(F)(F)F)c1NC(=O)C(=O)N[C@@H](CC(C)(C)C)C(=O)N1C[C@]2(C[C@H]1C#N)C(=O)Nc1ccccc12` [Example 132], for which the 50% inhibitory concentration (IC50) was under 100 nM.

For the compound `CC(C)(C)C[C@H](NC(=O)C(=O)NC1(C(F)(F)F)CC1)C(=O)N1C[C@]2(C[C@H]1C#N)C(=O)Nc1ccccc12` [Example 134], the IC50 is under 100 nM.

Turning to `CC(C)(C)C[C@H](NC(=O)C(=O)NC(C)(C)C(F)(F)F)C(=O)N1C[C@]2(C[C@H]1C#N)C(=O)Nc1ccccc12` [Example 135], the IC50 is under 100 nM.

On to `CC(C)(C)C[C@H](NC(=O)C(=O)N[C@]12CC[C@H](C1)C2)C(=O)N1C[C@]2(C[C@H]1C#N)C(=O)Nc1ccccc12` [Example 136], for which the IC50 is under 100 nM.

In the case of `CC(C)(C)C[C@H](NC(=O)C(=O)Nc1ccc(C(F)(F)F)cc1C(F)(F)F)C(=O)N1C[C@]2(C[C@H]1C#N)C(=O)Nc1ccccc12` [Example 137], the IC50 is 100 to 1000 nM.

In the case of `CC(C)(C)C[C@H](NC(=O)C(=O)NC1(c2ccccc2F)CC1)C(=O)N1C[C@]2(C[C@H]1C#N)C(=O)Nc1ccccc12` [Example 139], the IC50 was under 100 nM.

Consider `CC(C)(C)C[C@H](NC(=O)C(=O)NC1(C)CC1)C(=O)N1C[C@]2(C[C@H]1C#N)C(=O)Nc1ccccc12` [Example 140], for which the IC50 is under 100 nM.

On to `CC(C)(C)C[C@H](NC(=O)C(=O)N[C@]12C[C@](C)(C1)C2)C(=O)N1C[C@]2(C[C@H]1C#N)C(=O)Nc1ccccc12` [Example 141], for which the half-maximal inhibitory concentration (IC50) was under 100 nM.

Consider `CC(C)(C)C[C@H](NC(=O)C(=O)N[C@]12C[C@](F)(C1)C2)C(=O)N1C[C@]2(C[C@H]1C#N)C(=O)Nc1ccccc12` [Example 142], for which the IC50 is under 100 nM.

Turning to `Cc1cc(F)cc(C)c1NC(=O)C(=O)N[C@@H](CC(C)(C)C)C(=O)N1C[C@]2(C[C@H]1C#N)C(=O)Nc1ccccc12` [Example 143], the IC50 was under 100 nM.

With `COc1cccc(C)c1NC(=O)C(=O)N[C@@H](CC(C)(C)C)C(=O)N1C[C@]2(C[C@H]1C#N)C(=O)Nc1ccccc12` [Example 144], the IC50 was under 100 nM.

Consider `CC(C)(C)C[C@H](NC(=O)C(=O)Nc1c(C#N)cccc1C(F)(F)F)C(=O)N1C[C@]2(C[C@H]1C#N)C(=O)Nc1ccccc12` [Example 145], for which the IC50 lay in the range of 100 to 1000 nM.

In the case of `CC(C)(C)C[C@H](NC(=O)C(=O)Nc1c(F)cccc1Cl)C(=O)N1C[C@]2(C[C@H]1C#N)C(=O)Nc1ccccc12` [Example 146], the IC50 was under 100 nM.

As to `Cc1cccc(Cl)c1NC(=O)C(=O)N[C@@H](CC(C)(C)C)C(=O)N1C[C@]2(C[C@H]1C#N)C(=O)Nc1ccccc12` [Example 147], the IC50 is under 100 nM.

Regarding `CC(C)(C)C[C@H](NC(=O)C(=O)Nc1c(Cl)cccc1C#N)C(=O)N1C[C@]2(C[C@H]1C#N)C(=O)Nc1ccccc12` [Example 148], the IC50 is under 100 nM.

As for `CC(C)(C)C[C@H](NC(=O)C(=O)Nc1ccc(Cl)cc1C(F)(F)F)C(=O)N1C[C@]2(C[C@H]1C#N)C(=O)Nc1ccccc12` [Example 149], the IC50 was under 100 nM.

As for `CC(C)(C)C[C@H](NC(=O)C(=O)Nc1c(F)ccc(F)c1F)C(=O)N1C[C@]2(C[C@H]1C#N)C(=O)Nc1ccccc12` [Example 150], the IC50 is under 100 nM.

As to `CN(C(=O)C(=O)Nc1c(Cl)cccc1Cl)[C@@H](CC(C)(C)C)C(=O)N1C[C@]2(C[C@H]1C#N)C(=O)Nc1ccccc12` [Example 151], the IC50 is under 100 nM.

As a reminder, the IC50 is the midpoint of a concentration-inhibition curve.
